Results as given in patent US10508086B2 (CANCER RESEARCH TECHNOLOGY LIMITED, priority 2014, dated 2019).

Tests used:
Human Full Length PARG = Human Full Length PARG (Homo sapiens (Human), UniProt Q86W56); assay: PARG in vitro enzyme assay (TR-FRET); assay type: biochemical; conditions: read-out: PARG_EC50_ENZYME
Protocol: PARG In vitro assays were conducted in a total volume of 15 ul in a standard 384 well format. 5 ul of Human Full Length PARG (Produced internally by Astra Zeneca), used at a final reaction concentration of […], was added to 5 ul of Ribosylated PARP substrate (also produced internally by Astra Zeneca) at final reaction concentration of 4.5 nM in assay buffer (50 mM Tris pH7.4, 0.1 mg/ml BSA, 3 mM EDTA, 0.4 mM EGTA, 1 mM DTT, 0.01% Tween 20, 50 mM KCl). The reaction was incubated at room temperature for 10 minutes and then 5 ul detection reagent was added. Detection Reagent consists of 42 nM MAb Anti-6HIS XL665 (CisBio: 61 HISXLB) and 2.25 nM Streptavidin Europium Cryptate (CisBio: 610SAKLB), both at 3× working stock concentrations (final concentrations of 14 nM and 0.75 nM respectively), in a detection buffer of 50 mM Tris pH7.4, BSA at 0.1 mg/ml and KF at 100 mM. Following incubation at room temperature for 60 minutes in the dark, TR-FRET signal was measured at Ex 340 and Em 665 and Em 620. A ratio was calculated as Em665/EM620×104 for each well and used to calculate percent inhibition for test compounds.

PARG in HeLa cell line = PARG in HeLa cell line (Homo sapiens (Human), UniProt Q86W56); assay: PARG cell assay (nuclear PAR chains after MMS, immunofluorescence); assay type: cell-based; conditions: HeLa cells, MMS 50 μg/mL; read-out: PARG Cell IC50 Geomean
PARG in HeLa cell line, sequence (Q86W56 whole entry): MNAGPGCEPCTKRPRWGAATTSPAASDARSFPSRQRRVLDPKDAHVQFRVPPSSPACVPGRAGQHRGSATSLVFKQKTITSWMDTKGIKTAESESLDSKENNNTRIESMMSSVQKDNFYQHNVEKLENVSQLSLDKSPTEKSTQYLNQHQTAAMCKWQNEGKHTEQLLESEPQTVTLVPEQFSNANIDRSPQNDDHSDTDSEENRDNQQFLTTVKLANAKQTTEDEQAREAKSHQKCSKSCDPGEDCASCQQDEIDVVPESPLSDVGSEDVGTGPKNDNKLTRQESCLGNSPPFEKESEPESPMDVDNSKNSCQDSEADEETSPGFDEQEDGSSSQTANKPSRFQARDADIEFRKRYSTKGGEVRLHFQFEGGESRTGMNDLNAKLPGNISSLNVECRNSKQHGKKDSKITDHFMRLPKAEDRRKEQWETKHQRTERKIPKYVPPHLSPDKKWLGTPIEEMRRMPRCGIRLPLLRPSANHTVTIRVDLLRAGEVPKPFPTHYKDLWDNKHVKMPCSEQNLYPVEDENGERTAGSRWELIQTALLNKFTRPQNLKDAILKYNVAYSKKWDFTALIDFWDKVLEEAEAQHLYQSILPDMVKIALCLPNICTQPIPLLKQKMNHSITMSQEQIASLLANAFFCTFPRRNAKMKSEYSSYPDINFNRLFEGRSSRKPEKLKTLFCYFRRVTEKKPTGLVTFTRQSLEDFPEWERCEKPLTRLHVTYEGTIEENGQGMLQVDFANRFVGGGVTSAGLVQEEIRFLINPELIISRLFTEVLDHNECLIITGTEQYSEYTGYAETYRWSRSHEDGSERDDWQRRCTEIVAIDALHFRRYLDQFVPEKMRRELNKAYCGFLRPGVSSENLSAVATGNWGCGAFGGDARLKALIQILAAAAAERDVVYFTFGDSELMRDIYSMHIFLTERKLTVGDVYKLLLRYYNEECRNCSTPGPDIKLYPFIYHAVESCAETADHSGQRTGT
Protocol: This method is based on the detection of endogenous levels of poly (ADP) ribose chains present in the nucleus of HeLa cell line using indirect immunofluorescence. MMS stimulation increases PAR chains for up to 25 mins. After that point, PARG is active and breaks down the PAR chains, until by one hour after stimulation no PAR chains are detectable. Inhibition of PARG maintains PAR chains.
Briefly, following compound treatment and treatment with the DNA damaging agent methylmethanesulfonate (MMS), the cell monolayer is fixed, then permeabilised and incubated with a mouse monoclonal antibody raised against multimers of poly(ADP) ribose. After an overnight incubation, excess antibody is removed by washing and an Alexafluor 488-linked secondary antibody which recognises the mouse monoclonal is added together with a nuclear stain (Hoechst 33342). Images of the cells are then captured and analysed on a High Content Screening platform and the total intensity of the nuclear fluorescent signal at […] is quantified.
HeLa cells, seeded in 384-well plates, at 4000/well in 30 μL RPMI 1640 media, supplemented with 10% FBS and 2 mM Glutamax, were incubated overnight at 37° C., 5% CO2.
The following day, cells were dosed in quadruplicate with compound (10 point dose response) and incubated for 1 h at 37° C., 5% CO2.
At the end of the 1 h dosing period, MMS was added to duplicates at a final concentration of 50 μg/mL, for a further hour.
Media was tipped off and the cells fixed with 50 μL ice-cold 95% MetOH/PBS for 15 mins at −20° C. Following a PBS wash, 50 μL PBS/0.1% Triton was added to the cells for 20 mins. Following another PBS wash, anti-PAR antibody (Calbiochem AM80) was diluted 1:4000 in a buffer (PBS+0.5% FBS+0.05% Tween20) and added to the cells and incubated overnight at 4° C.
The following day, cells were washed three times with PBS and then incubated for 1 hr with secondary antibody (Alexa Fluor® 488 goat anti mouse IgG (H+L)) diluted 1:1000 and Hoechst diluted 1:5000 in buffer (5% FBS in PBS+0.05% Tween20).
Cells were washed three times with PBS and the plate sealed with a light-proof seal.
Images of the cells were captured on a ThermoFisher Celllnsight and the mean total intensity of spots fluorescent at 485 nm in the nucleus was reported.

Human Full Length PARG, sequence (Q86W56 whole entry): as above

Cn1c(=O)n(-c2ncns2)c2cc(S(=O)(=O)NC3(C)CC3)ccc21 [Example 98]
EC50 (Human Full Length PARG): 359 nM
IC50 (PARG in HeLa cell line): 694 nM

Cn1c(=O)n(-c2nnc(C(F)F)o2)c2cc(S(=O)(=O)NC3(CF)CC3)c(F)cc21 [Example 210, 3-[5-(Difluoromethyl)-1,3,4-oxadiazol-2-yl]-6-fluoro-N-[1-(fluoromethyl)cyclopropyl]-1-methyl-2-oxo-benzimidazole-5-sulfonamide]
EC50 (Human Full Length PARG): 349 nM
IC50 (PARG in HeLa cell line): 224 nM

Cc1nsc(-n2c(=O)n(C)c3ccc(S(=O)(=O)NC4(CF)CC4)cc32)n1 [Example 177]
IC50 (PARG in HeLa cell line): 2540 nM

Cc1cc(Cn2c(=O)n(-c3nnc(C)s3)c3cc(S(=O)(=O)NC4(C)CC4)ccc32)n(C)n1 [Example 84]
EC50 (Human Full Length PARG): 359 nM
IC50 (PARG in HeLa cell line): 271 nM

CC1(NS(=O)(=O)c2cc3c(cc2F)n(CCF)c(=O)n3-c2nnc(C(F)F)s2)CC1 [Example 217, 3-[5-(Difluoromethyl)-1,3,4-thiadiazol-2-yl]-6-fluoro-1-(2-fluoroethyl)-N-(1-methylcyclopropyl)-2-oxo-benzimidazole-5-sulfonamide]
EC50 (Human Full Length PARG): 156 nM
IC50 (PARG in HeLa cell line): 36 nM

Cc1nnc(-n2c(=O)n(CCF)c3ccc(S(=O)(=O)NC4(C)CC4)cc32)o1 [Example 191, 1-(2-Fluoroethyl)-N-(1-methylcyclopropyl)-3-(5-methyl-1,3,4-oxadiazol-2-yl)-2-oxo-benzimidazole-5-sulfonamide]
EC50 (Human Full Length PARG): 967 nM
IC50 (PARG in HeLa cell line): 807 nM

Cc1nsc(-n2c(=O)n(C)c3cc(F)c(S(=O)(=O)NC4(C)CC4)cc32)n1 [Example 171, 6-Fluoro-1-methyl-N-(1-methylcyclopropyl)-3-(3-methyl-1,2,4-thiadiazol-5-yl)-2-oxo-benzimidazole-5-sulfonamide]
EC50 (Human Full Length PARG): 7110 nM
IC50 (PARG in HeLa cell line): 1550 nM

Cc1nnc(-n2c(=O)n(CC#N)c3ccc(S(=O)(=O)NC4(CF)CC4)cc32)s1 [Example 178, 1-(Cyanomethyl)-N-[1-(fluoromethyl)cyclopropyl]-3-(5-methyl-1,3,4-thiadiazol-2-yl)-2-oxo-benzimidazole-5-sulfonamide]
EC50 (Human Full Length PARG): 682 nM
IC50 (PARG in HeLa cell line): 903 nM

Cc1nc(C)c(Cn2c(=O)n(-c3nccs3)c3cc(S(=O)(=O)NC4(C)CC4)ccc32)s1 [Example 111]
EC50 (Human Full Length PARG): 147 nM
IC50 (PARG in HeLa cell line): 507 nM

CCOC(=O)c1oc2ccc(S(=O)(=O)NC3(C)CC3)cc2c1C [Example 218, Ethyl 3-methyl-5-[(1-methylcyclopropyl)sulfamoyl]benzofuran-2-carboxylate]
EC50 (Human Full Length PARG): 15800 nM
IC50 (PARG in HeLa cell line): 2810 nM

Cc1nsc(-n2c(=O)n(C)c3cc(F)c(S(=O)(=O)NC4(CF)CC4)cc32)n1 [Example 172, 6-Fluoro-N-[1-(fluoromethyl)cyclopropyl]-1-methyl-3-(3-methyl-1,2,4-thiadiazol-5-yl)-2-oxo-benzimidazole-5-sulfonamide]
EC50 (Human Full Length PARG): 12000 nM
IC50 (PARG in HeLa cell line): 2090 nM

CCn1c(=O)n(-c2nnc(C)s2)c2cc(S(=O)(=O)NC3(CF)CC3)ccc21 [Example 159, 1-Ethyl-N-[1-(fluoromethyl)cyclopropyl]-3-(5-methyl-1,3,4-thiadiazol-2-yl)-2-oxo-benzimidazole-5-sulfonamide]
EC50 (Human Full Length PARG): 590 nM
IC50 (PARG in HeLa cell line): 349 nM

Cc1nnc(-n2c(=O)n(C)c3ccc(S(=O)(=O)NC4(CF)CC4)cc32)s1 [Example 156, N-[1-(Fluoromethyl)cyclopropyl]-1-methyl-3-(5-methyl-1,3,4-thiadiazol-2-yl)-2-oxo-benzimidazole-5-sulfonamide]
EC50 (Human Full Length PARG): 686 nM
IC50 (PARG in HeLa cell line): 589 nM

Cc1nnc(-n2c(=O)n(CCF)c3cc(F)c(S(=O)(=O)NC4(C)CC4)cc32)o1 [Example 198, 6-Fluoro-1-(2-fluoroethyl)-N-(1-methylcyclopropyl)-3-(5-methyl-1,3,4-oxadiazol-2-yl)-2-oxo-benzimidazole-5-sulfonamide]
EC50 (Human Full Length PARG): 419 nM
IC50 (PARG in HeLa cell line): 297 nM

Cc1nnc(-n2c(=O)n(CC3CCCN3C)c3ccc(S(=O)(=O)NC4(C)CC4)cc32)s1 (stereo not shown) [Example 155]
EC50 (Human Full Length PARG): 464 nM
IC50 (PARG in HeLa cell line): 166 nM

CCn1c(=O)n(-c2nnc(C(F)F)o2)c2cc(S(=O)(=O)NC3(C)CC3)c(F)cc21 [Example 199, 3-[5-(Difluoromethyl)-1,3,4-oxadiazol-2-yl]-1-ethyl-6-fluoro-N-(1-methylcyclopropyl)-2-oxo-benzimidazole-5-sulfonamide]
EC50 (Human Full Length PARG): 314 nM
IC50 (PARG in HeLa cell line): 145 nM

Cc1nnc(-n2c(=O)n(CCN(C)C)c3ccc(S(=O)(=O)NC4(CF)CC4)cc32)s1 [Example 188, 1-[2-(Dimethylamino)ethyl]-N-[1-(fluoromethyl)cyclopropyl]-3-(5-methyl-1,3,4-thiadiazol-2-yl)-2-oxo-benzimidazole-5-sulfonamide]
EC50 (Human Full Length PARG): 610 nM
IC50 (PARG in HeLa cell line): 347 nM

COCCn1c(=O)n(-c2nc(C)ns2)c2cc(S(=O)(=O)NC3(CF)CC3)ccc21 [Example 184, N-[1-(Fluoromethyl)cyclopropyl]-1-(2-methoxyethyl)-3-(3-methyl-1,2,4-thiadiazol-5-yl)-2-oxo-benzimidazole-5-sulfonamide]
EC50 (Human Full Length PARG): 1390 nM
IC50 (PARG in HeLa cell line): 701 nM

Cn1c(=O)n(-c2ccc(C(F)(F)F)nn2)c2cc(S(=O)(=O)NC3(CF)CC3)c(F)cc21 [Example 206, 6-Fluoro-N-[1-(fluoromethyl)cyclopropyl]-1-methyl-2-oxo-3-[6-(trifluoromethyl)pyridazin-3-yl]benzimidazole-5-sulfonamide]
EC50 (Human Full Length PARG): 3970 nM
IC50 (PARG in HeLa cell line): 970 nM

Cc1nnc(-n2c(=O)n(CCCN(C)C)c3ccc(S(=O)(=O)NC4(C)CC4)cc32)s1 [Example 135]
EC50 (Human Full Length PARG): 512 nM
IC50 (PARG in HeLa cell line): 371 nM

Cc1nnc(-n2c(=O)n(C)c3ccc(S(=O)(=O)NC4(C)CC4)cc32)o1 [Example 189, 1-Methyl-N-(1-methylcyclopropyl)-3-(5-methyl-1,3,4-oxadiazol-2-yl)-2-oxo-benzimidazole-5-sulfonamide]
EC50 (Human Full Length PARG): 1790 nM
IC50 (PARG in HeLa cell line): 1230 nM

Cc1nsc(-n2c(=O)n(C)c3ccc(S(=O)(=O)NC4(C)CC4)cc32)n1 [Example 176, 1-Methyl-N-(1-methylcyclopropyl)-3-(3-methyl-1,2,4-thiadiazol-5-yl)-2-oxo-benzimidazole-5-sulfonamide]
EC50 (Human Full Length PARG): 6020 nM
IC50 (PARG in HeLa cell line): 1790 nM

NC(=O)Cn1c(=O)n(-c2nnc(C(F)F)s2)c2cc(S(=O)(=O)NC3(CF)CC3)c(F)cc21 [Example 214, 2-[3-[5-(Difluoromethyl)-1,3,4-thiadiazol-2-yl]-6-fluoro-5-[[1-(fluoromethyl)cyclopropyl]sulfamoyl]-2-oxo-benzimidazol-1-yl]acetamide]
EC50 (Human Full Length PARG): 165 nM
IC50 (PARG in HeLa cell line): 1520 nM

Cn1c(=O)n(-c2ncc(/C=C/C(=O)O)s2)c2cc(S(=O)(=O)NC3(C)CC3)ccc21 [Example 69, (E)-3-[2-[3-methyl-6-[(1-methylcyclopropyl)sulfamoyl]-2-oxo-benzimidazol-1-yl]thiazol-5-yl]prop-2-enoic acid]
EC50 (Human Full Length PARG): 3210 nM

Cc1nc(C)c(Cn2c(=O)n(-c3cncs3)c3cc(S(=O)(=O)NC4(C)CC4)ccc32)s1 [Example 97]
EC50 (Human Full Length PARG): 816 nM

C=CCn1c(=O)n(C)c2cc(S(=O)(=O)NC3(C)CC3)ccc21 [Example 18]
EC50 (Human Full Length PARG): 7560 nM

CC(=O)NCc1nc2ccc(S(=O)(=O)NC3(C)CC3)cc2n1-c1nnc(C)s1 [Example 124]
EC50 (Human Full Length PARG): 7680 nM
